Measurements reported in ChEMBL document CHEMBL1201862, “PubChem BioAssay data set” (2004).
Calls of active or inactive are those of the source.

Key:
cells [1] = assay type: functional, cell-based
[2] = target: Nuclear receptor subfamily 0 group B member 1 (Homo sapiens, UniProt P51843); assay type: functional, cell-based;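 also: HEK293T cells transfected with SF-1 and DAX-1 plus StAR promoter luciferase reporter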
[3] = intracellular Trypanosoma cruzi inhibitors in host cells – cell-based, plate reader, cherry-pick samples, set 3, dose response (AID 651818); assay type: functional;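 also: compounds incubated with infected cells for about four days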
[4] = NIH/3T3 fibroblast cytotoxicity, dose response, cytotoxicity control for T. cruzi growth inhibitor project, cell-based, cherry-pick samples, set 2 (AID 651817); assay type: functional; details: NIH3T3
[5] = LMP1-driven NF-kB reporter inhibition, dose response, cell-based, luciferase reporter, luminescence, dry powder, set 2 (AID 624376); assay type: functional
[6] = target: T1, Sentrin-specific protease 1 (Homo sapiens, UniProt Q9P0U3); assay: Dose response confirmation of small molecule inhibitors of the catalytic domain of the SUMO protease, SENP1 in a FRET assay.; assay type: functional; details: read-out: IC50_Mean
T1 sequence (Q9P0U3 whole entry, the tested form may be a part): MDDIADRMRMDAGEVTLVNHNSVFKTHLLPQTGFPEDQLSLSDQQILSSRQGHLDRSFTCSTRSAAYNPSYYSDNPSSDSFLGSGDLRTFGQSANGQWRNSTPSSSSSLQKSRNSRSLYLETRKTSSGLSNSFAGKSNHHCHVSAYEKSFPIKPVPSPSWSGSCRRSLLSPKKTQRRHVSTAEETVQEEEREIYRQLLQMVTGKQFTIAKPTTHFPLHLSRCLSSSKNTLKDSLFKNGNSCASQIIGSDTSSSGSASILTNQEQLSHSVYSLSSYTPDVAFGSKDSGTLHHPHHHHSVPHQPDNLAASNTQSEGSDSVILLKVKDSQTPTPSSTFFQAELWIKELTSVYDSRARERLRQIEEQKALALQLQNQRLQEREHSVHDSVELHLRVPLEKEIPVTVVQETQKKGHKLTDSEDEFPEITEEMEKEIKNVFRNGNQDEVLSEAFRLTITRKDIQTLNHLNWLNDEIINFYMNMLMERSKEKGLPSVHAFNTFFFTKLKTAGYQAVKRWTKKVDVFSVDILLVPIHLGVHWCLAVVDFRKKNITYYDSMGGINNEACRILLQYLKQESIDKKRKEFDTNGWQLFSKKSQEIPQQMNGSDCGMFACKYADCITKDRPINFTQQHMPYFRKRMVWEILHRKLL

[7] = target: T1, Sentrin-specific protease 1; assay: potency of human SENP1 inhibitors, dose response, biochemical, kinetic FRET (AID 651697); assay type: functional; details: read-out: IC50_Mean
[8] = HeLa cell cytotoxicity, dose response, cytotoxicity control for MgcRacGAP inhibitor project (AID 624300); assay type: functional
[9] = target: Arf-GAP with SH3 domain, ANK repeat and PH domain-containing protein 1 (Homo sapiens, UniProt Q9ULH1); assay type: functional;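 also: biochemical fluorescence polarization dose–response screen measuring inhibition of ASAP1; ASAP1 GAP domain stimulating GTP hydrolysis by truncated human ARF1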
Arf-GAP with SH3 domain, ANK repeat and PH domain-containing protein 1, sequence (Q9ULH1 whole entry, the tested form may be a part): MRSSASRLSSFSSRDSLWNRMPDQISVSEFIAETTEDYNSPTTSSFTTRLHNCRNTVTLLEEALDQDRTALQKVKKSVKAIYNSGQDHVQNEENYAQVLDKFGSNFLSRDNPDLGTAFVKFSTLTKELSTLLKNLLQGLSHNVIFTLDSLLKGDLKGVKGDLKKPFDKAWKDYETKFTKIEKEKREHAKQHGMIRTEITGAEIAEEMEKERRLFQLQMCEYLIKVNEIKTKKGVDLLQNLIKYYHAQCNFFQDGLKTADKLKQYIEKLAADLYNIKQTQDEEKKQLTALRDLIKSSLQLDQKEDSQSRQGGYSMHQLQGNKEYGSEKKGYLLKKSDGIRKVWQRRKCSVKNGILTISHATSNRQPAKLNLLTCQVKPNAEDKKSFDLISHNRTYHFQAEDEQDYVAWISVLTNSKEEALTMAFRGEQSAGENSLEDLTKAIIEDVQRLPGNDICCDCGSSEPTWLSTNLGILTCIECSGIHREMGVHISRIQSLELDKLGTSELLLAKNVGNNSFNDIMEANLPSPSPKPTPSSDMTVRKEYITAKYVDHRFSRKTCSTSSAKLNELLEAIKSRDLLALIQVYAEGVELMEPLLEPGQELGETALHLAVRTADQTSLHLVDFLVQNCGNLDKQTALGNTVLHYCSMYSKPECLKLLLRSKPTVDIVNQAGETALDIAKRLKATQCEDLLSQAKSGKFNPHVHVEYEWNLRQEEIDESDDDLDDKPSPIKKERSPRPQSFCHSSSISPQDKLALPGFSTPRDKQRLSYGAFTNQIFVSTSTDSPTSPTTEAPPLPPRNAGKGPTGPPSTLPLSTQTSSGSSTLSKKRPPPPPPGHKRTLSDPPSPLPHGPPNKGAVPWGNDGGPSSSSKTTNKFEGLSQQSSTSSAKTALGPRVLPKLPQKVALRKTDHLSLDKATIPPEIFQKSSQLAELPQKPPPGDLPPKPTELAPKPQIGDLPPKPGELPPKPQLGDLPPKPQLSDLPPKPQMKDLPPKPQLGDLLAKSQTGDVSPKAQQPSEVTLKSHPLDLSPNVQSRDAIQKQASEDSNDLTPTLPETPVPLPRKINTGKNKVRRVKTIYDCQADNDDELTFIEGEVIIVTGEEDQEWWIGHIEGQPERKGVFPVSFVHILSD

[10] = target: T2, Rac GTPase-activating protein 1 (Homo sapiens, UniProt Q9H0H5); assay: MgcRacGAP GTPase-activating activity inhibitors, confirmation, biochemical, ADP Hunter fluorescence, primary and confirmatory (AID 624330); assay type: functional
T2 sequence (Q9H0H5 whole entry): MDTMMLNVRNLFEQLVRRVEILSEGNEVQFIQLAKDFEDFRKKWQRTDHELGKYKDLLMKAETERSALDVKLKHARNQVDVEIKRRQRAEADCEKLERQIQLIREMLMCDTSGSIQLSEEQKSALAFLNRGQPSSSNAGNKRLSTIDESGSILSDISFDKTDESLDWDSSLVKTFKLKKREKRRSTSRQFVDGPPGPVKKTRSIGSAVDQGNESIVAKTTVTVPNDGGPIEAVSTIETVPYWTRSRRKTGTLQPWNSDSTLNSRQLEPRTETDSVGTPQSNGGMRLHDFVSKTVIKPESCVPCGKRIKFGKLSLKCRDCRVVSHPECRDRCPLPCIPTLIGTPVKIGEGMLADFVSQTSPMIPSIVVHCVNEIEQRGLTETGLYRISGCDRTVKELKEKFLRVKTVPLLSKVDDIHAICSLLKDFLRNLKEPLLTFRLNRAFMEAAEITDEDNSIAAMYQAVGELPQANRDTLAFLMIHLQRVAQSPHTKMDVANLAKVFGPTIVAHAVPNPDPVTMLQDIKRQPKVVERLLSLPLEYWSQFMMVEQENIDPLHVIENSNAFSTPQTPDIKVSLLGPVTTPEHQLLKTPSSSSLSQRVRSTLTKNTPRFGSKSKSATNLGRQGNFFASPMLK

[11] = target: T3, DNA repair protein RAD52 homolog (Homo sapiens, UniProt P43351); assay type: functional, biochemical
T3 sequence (P43351 whole entry): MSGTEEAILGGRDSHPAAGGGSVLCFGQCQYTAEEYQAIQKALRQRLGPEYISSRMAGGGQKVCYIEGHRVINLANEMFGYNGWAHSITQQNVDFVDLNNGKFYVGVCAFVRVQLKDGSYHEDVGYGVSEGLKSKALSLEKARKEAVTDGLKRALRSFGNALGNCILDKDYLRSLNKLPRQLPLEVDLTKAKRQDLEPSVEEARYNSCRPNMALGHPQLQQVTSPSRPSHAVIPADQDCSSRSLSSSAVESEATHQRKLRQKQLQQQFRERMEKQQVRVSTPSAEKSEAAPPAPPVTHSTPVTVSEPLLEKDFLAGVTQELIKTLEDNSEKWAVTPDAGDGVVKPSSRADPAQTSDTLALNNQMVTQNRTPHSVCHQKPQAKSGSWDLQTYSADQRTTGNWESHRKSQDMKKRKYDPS

[12] = HEK293T cell cytotoxicity, dose response, cytotoxicity control for HIV Vif inhibitor project, cherry-picks (AID 652208); assay type: functional, cell-based
cells [13] = assay type: functional, cell-based; details: HEK-CNG
Galanin receptor type 3 = target: T4, Galanin receptor type 3 (Homo sapiens, UniProt O60755); assay: Fluorescence-based cell-based primary high throughput dose response assay to identify antagonists of the Galanin Receptor 3 (GalR3).; assay type: functional
T4 sequence (O60755 whole entry): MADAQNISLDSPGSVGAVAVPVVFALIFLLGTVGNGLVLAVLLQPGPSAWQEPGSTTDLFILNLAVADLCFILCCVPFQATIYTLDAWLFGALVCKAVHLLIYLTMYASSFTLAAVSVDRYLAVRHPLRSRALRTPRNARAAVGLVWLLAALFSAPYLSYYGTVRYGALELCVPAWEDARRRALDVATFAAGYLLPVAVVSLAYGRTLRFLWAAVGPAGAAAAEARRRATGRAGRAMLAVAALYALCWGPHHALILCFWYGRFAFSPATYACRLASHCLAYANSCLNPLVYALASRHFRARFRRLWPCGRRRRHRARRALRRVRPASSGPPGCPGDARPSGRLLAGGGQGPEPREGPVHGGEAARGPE

[14] = target: T5, High affinity choline transporter 1 (Homo sapiens, UniProt Q9GZV3); assay: CHT inhibitors, dose response, cell-based, 10-point CRC, membrane potential dye (AID 588401); assay type: functional;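 also: membrane potential dye fluorescence of choline-evoked depolarization via CHT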
T5 sequence (Q9GZV3 whole entry): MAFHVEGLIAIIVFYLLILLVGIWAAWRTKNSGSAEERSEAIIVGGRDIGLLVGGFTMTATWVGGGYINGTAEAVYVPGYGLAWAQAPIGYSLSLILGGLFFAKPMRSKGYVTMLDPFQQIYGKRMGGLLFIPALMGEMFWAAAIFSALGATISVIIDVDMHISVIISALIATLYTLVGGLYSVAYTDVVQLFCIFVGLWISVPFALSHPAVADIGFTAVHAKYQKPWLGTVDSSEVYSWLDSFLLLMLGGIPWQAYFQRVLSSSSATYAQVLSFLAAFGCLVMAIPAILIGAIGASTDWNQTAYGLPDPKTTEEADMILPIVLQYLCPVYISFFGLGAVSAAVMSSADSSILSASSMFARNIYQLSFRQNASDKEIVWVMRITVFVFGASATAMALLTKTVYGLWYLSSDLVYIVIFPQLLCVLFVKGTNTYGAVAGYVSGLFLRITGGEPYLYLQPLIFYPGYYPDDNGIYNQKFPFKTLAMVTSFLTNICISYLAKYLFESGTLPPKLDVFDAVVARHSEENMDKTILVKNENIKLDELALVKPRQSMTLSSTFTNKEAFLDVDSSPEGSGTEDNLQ

[15] = target: T5, High affinity choline transporter 1; assay: CHT inhibitors, dose response, cell-based, 5-point CRC, membrane potential dye (AID 504840); assay type: functional
[16] = Luminescence Cell-Based Dose Retest to Confirm Inhibitors of Cancer Stem Cells. [Related pubchem assays (depositor defined):AID2717, AID2721]; assay type: functional; details: Homo sapiens
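For EC50 in this document: target is galanin receptor GalR3 read with a cAMP biosensor in HEK293 cells.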

Nuclear receptor subfamily 0 group B member 1, sequence (P51843 whole entry): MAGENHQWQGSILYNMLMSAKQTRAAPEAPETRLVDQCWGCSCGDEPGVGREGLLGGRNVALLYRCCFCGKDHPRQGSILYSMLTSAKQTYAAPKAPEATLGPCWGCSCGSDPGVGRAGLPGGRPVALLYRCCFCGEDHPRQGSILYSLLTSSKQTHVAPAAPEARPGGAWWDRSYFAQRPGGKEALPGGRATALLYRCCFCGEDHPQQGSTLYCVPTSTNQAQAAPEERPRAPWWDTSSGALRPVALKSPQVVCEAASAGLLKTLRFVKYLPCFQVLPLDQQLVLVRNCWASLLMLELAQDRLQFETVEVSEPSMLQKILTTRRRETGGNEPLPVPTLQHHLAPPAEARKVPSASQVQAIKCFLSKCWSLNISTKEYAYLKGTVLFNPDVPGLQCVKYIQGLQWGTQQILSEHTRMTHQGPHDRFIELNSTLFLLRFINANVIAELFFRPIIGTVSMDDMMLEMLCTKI

Cc1ccn2c(Cc3ccccc3)c(-c3ccc(Br)cc3)nc2c1
IC50 (cells [1]): > 67.6 µM (inactive)
IC50 [2]: > 67.6 µM (inactive)

C[C@H]1CN([C@@H](C)CO)C(=O)c2cccc(NC(=O)c3nc4ccccc4s3)c2O[C@H]1CN(C)S(=O)(=O)c1ccccc1
AC50 [3]: 2.55 µM (active)
AC50 [4]: 39 µM (inactive)

C[C@@H]1CN([C@@H](C)CO)C(=O)Cc2cc(NC(=O)Cc3ccccc3)ccc2O[C@H]1CN(C)Cc1ccc(C(F)(F)F)cc1
AbsAC35 [5]: 115.61 µM

O=C(O)c1ccc(N/N=C/c2cccc3nccnc23)cc1
IC50 [6]: 8.97 µM (active)
IC50 [7]: 15.1 µM (active)

C[n+]1c(-c2ccc(C=NNC(=O)c3ccc(C(=O)NN=Cc4ccc(-c5cn6ccccc6[n+]5C)cc4)cc3)cc2)cn2ccccc21
CC50 [8]: 100 µM (active)
IC50 [9]: 22.3 µM (inactive)
IC50 [10]: 66.4 µM (active)
AC50 [11]: 1.52 µM (active)

C=CCNc1ncnc2c1ncn2C1OC(CO)C(O)C1O (configuration not stated)
AC50 [12]: 22.1 µM (active)
EC50 (cells [13]): 15.8 µM (inactive)
IC50 (Galanin receptor type 3): > 0.369 µM (active)
IC50 [14]: 6.31 µM (active)
IC50 [15]: 9.17 µM (active)
AC50 [16]: 3.33 µM (active)
